In patent US20030212013A1, “Use of amp kinase activators for treatment type 2 diabetes and insulin resistance” (priority 2002, published 2003):
Values joined by “and” are separate entries in the source; they are usually repeats but may differ in a detail not shown here. Equal entries are not always repeated.

Experiments:
[1] = Preliminary time course of muscle ZMP after AICAR injection; format: in vivo, rat; settings: AICAR 1 mg/g s.c., n=3, preliminary experiments
Protocol: (§1) To determine the effect of chronic activation of AMPK, rats were injected (between 8 and 10 am.) subcutaneously with AICAR (1 mg/g body weight) or saline vehicle for five days in succession. This dose was shown in preliminary experiments to increase ZMP levels in the muscle to 0.57±0.06 μmol/g after 15 min, to 0.79±0.06 μmol/g after 60 min, to 0.69±0.06 μmol/g after 90 min, and to 0.60±0.06 μmol/g after 120 minutes (n=3 at each time point). Beginning with the first injection, controls were pair fed with AICAR-injected rats. Saline injected controls ate 17±1 g and AICAR injected rats ate 18±1 g of food during the 24 hour period prior to blood and tissue collection. Rats were anesthetized by intraperitoneal injection of pentobarbital (22-25 hrs following the last AICAR injection) and epitrochlearis, and gastrocnemius/plantaris muscles were collected and frozen as described above. Muscles were kept under liquid nitrogen until analyzed.

acetyl-CoA carboxylase = assay: Citrate dependence of acetyl-CoA carboxylase in muscles of AICAR-injected rats; format: in vivo, rat; settings: 1 hour following AICAR 1 mg/g
Excerpt: (§2) All procedures were approved by the Institutional Animal Care and Use Committee. Male Sprague-Dawley rats weighing 197±5 grams (Sasco, Wilmington, Mass. 01887) were housed in individual cages in a temperature (22-25 C.) and light-controlled (12:12-h light-dark cycle) room and were given food (Harlan Teklad rodent diet, Madison, Wis.) and water ad libitum. To determine acute in vivo effects of AICAR, a jugular catheter was installed and exteriorized on the back of the neck three days prior to the day of the experiment. This catheter was implanted for the purpose of allowing rapid anesthesia of the rat and rapid blood and tissue collection. Rats were then given AICAR (1 mg/g body weight) subcutaneously in sterile 0.9% NaCl or were given 0.9% NaCl (n=7 in each group). One hour following the subcutaneous injection of AICAR, rats were anesthetized by intravenous injection of pentobarbital (4.8 mg/100 g body weight). The epitrochlearis and gastrocnemius/plantaris muscles were quickly removed and rapidly frozen with stainless steel clamps at liquid nitrogen temperature. Blood was collected via the abdominal aorta and a perchloric acid extract was prepared (0.5 ml blood to 2.0 ml 10% HClO4), neutralized and utilized for analysis of glucose and lactate.
Muscles from rats killed 1 hour following injection of AICAR or saline were analyzed for AMPK, citrate-dependence of acetyl-CoA carboxylase, malonyl-CoA, glycogen, ZMP, ZTP, ATP, and ADP. Hassid, W Z. & S. Abraham Methods Enzymol. […] Blood glucose and lactate were measured by enzymatic techniques. […]
Referring to FIG. 2, the citrate dependence of acetyl-CoA carboxylase in gastrocnemius/plantaris muscles of rats 1 hour following injection with AICAR (1 mg/g body weight) or saline is illustrated. Standard errors were determined but are not shown. […] Because of the limited amount of tissue, the entire citrate activation curve could not be determined for epitrochlearis muscle, but the activity of ACC at a physiological concentration of citrate (0.2 mM) was reduced from 0.50±0.10 nmol/g/min to 0.10±0.03 nmol/g/min.

[2] = Muscle glycogen and food intake after five daily AICAR injections; format: in vivo, rat; settings: 24 hrs following the last of five daily AICAR injections; control 43±2
Protocol: as §1, with “Rats were anesthetized by intraperitoneal injection of pentobarbital (22-25 hrs following the last AICAR injection) and epitrochlearis, and gastrocnemius/plantaris muscles were collected and frozen as described above.” left out
(§3) Muscles from rats killed 22-25 hours following the fifth AICAR injection were analyzed for glycogen and GLUT4. […] Proteins of these homogenates were separated by SDS-PAGE using 10% resolving gels (Tris-HCl ready gels, BIO-RAD, Hercules, Calif.). […] Relative amounts of GLUT4 were then quantified using a Hewlett Packard ScanJet 6200C and SigmaGel software (SPSS, Inc, Chicago, Ill.). Total intensity of GLUT4 spots on the developed hyperfilm was expressed as a fraction of intensity shown by a GLUT4 standard run on the same gel. […]

[3] = Tissue and blood metabolites of rats after acute AICAR injection; format: in vivo, rat; settings: AICAR 1 mg/g s.c., 60 minutes following injection, mean ± SEM n=7
Excerpt: as §2
(§4) Muscles from rats killed 1 hour following injection of AICAR or saline were analyzed for AMPK, citrate-dependence of acetyl-CoA carboxylase, malonyl-CoA, glycogen, ZMP, ZTP, ATP, and ADP. Hassid, W Z. & S. Abraham Methods Enzymol. 3:35-36 (1957); McGarry, J. D. et al. J. Biol. Chem. 253:[…] (1978). Blood glucose and lactate were measured by enzymatic techniques. Bergmeyer, H. U., et al. D-Glucose determination with hexokinase and glucose-phosphate dehydrogenase. In: Methods of Enzymatic Analysis, edited by H. U. Bergmeyer. New York: Academic, 1196-1201 (1974); Gutmann I., & A. W. Wahlefeld. L-(+)-Lactate. Determination with lactate dehydrogenase and NAD. In: Methods of Enzymatic Analysis, edited by H. U. Bergmeyer. New York: Academic, 1464-1468 (1974).

AMPK [4] = assay: AMPK activity in muscles of rats following AICAR injection; format: in vivo, rat; settings: for AMPK activity increase vs saline: 1 hour following AICAR 1 mg/g injection
Excerpt: as §2, §4
Referring to FIG. 1, the AMPK activity in epitrochlearis and gastrocnemius/plantaris muscles of rats 1 hour following injection with 1 mg/g body weight AICAR or with saline is shown. Values are means ±SEM. […] AMPK activity was increased 2.4 fold in gastrocnemius/plantaris muscles and 4 fold in the epitrochlearis muscles 1 hour following the AICAR injection.

[5] = Tolerability of daily AICAR injections; format: in vivo, rat; settings: rats 197±5 grams, 1 mg/g body weight daily
Protocol: ATP and ADP were not influenced by the injection with AICAR. ZTP increased from non-detectable levels to 1.2 μmol/g. […] Muscle glycogen and liver glycogen were not acutely influenced 60 minutes following a single injection of AICAR.

GLUT4 = assay: Total GLUT4 protein (Western blot) in muscles after chronic AICAR injection; format: in vivo, rat
Protocol: as §1, with “This” for “To determine the effect of chronic activation of AMPK, rats were injected (between 8 and 10 am.) subcutaneously with AICAR (1 mg/g body weight) or saline vehicle for five days in succession. This”
as §3, with “GLUT4. For GLUT4 measurement muscle was ground to powder under liquid nitrogen. See Etgen, G. J., et al. Am. J. Physiol.” for “GLUT4.”

[6] = AICAR 0.25 mg/g body weight; normal (C57/BJ6), insulin deficient diabetic (C57/BJ6STZ) and insulin resistant diabetic (KKAy) mice; cited from earlier work
hexokinase = assay: Hexokinase activity in muscles after 5 days of AICAR injections; format: in vivo, rat; settings: 5 days AICAR 1 mg/g/d, both epitrochlearis and gastrocnemius/plantaris, p<0.001
Protocol: as §1
Hexokinase activity was determined spectrophotometrically at 30 C on 700×g supernatants of the same homogenate as was used for GLUT4 measurement Uyeda, K. & E. Racker, J Biol Chem 240:4682-4688 (1965).

AMPK [7] = settings: analogues of 5'-AMP; cited from earlier work
[8] = resting rats injected with AICAR

In the case of `NC(=O)c1ncn([C@@H]2O[C@H](CO)[C@@H](O)[C@H]2O)c1N` [AICAR, 5-aminoimidazole-4-carboxamide ribonucleoside], the “ZMP level in muscle” value ([1]; after 15 min) is reported as 0.57 ± 0.06 µmol/g, the “ZMP level in muscle” value ([1]; after 60 min) is reported as 0.79 ± 0.06 µmol/g and the “ZMP level in muscle” value ([1]; after 90 min) is reported as 0.69 ± 0.06 µmol/g. For the same molecule, the “ZMP level in muscle” value ([1]; after 120 minutes) was 0.60 ± 0.06 µmol/g, the “Activity of ACC at physiological citrate (0.2 mM)” value (acetyl-CoA carboxylase; epitrochlearis, saline 0.50±0.10) was 0.10±0.03 nmol/g/min and the “ACC citrate activation constant (Ka)” value (acetyl-CoA carboxylase; gastrocnemius/plantaris, saline 3.1±0.1) was 13.0 ± 0.3 mM. For the same molecule, the “ACC maximal velocity (Vmax) as a function of citrate concentration” value (acetyl-CoA carboxylase; gastrocnemius/plantaris, saline 60.1±1.3) was 32.4 ± 1.3 nmol/g/min, the Gastrocnemius/plantaris glycogen [2] was 87±4 μmol glucose units/g and the “Muscle ADP” value ([3]; gastrocnemius/plantaris) was 0.97 ± 0.02 µmol/g. The “Muscle ATP” value ([3]; gastrocnemius/plantaris) was 7.6 ± 0.1 µmol/g, the “Muscle Glycogen” value ([3]; gastrocnemius/plantaris) was 44 ± 4 µmol/g and the “Muscle Malonyl-CoA” value ([3]; gastrocnemius/plantaris) was 0.6 ± 0.1 nmol/g. For the same molecule, the “Muscle ZMP” value ([3]; gastrocnemius/plantaris) was 0.91 ± 0.02 µmol/g, the “Muscle ZTP” value ([3]; gastrocnemius/plantaris) was 1.2 µmol/g and 1.18 ± 0.09 µmol/g and the “Blodd Glucose” value [3] was 5.6 ± 0.6 mM. For the same molecule, the “Blood Lactate” value [3] was 6.8 ± 0.5 mM, the “Liver Glycogen” value [3] was 344 ± 44 µmol/g and the “AMPK activity increase vs saline” value (AMPK [4]; epitrochlearis muscles) was 4 fold. The “AMPK activity increase vs saline” value (AMPK [4]; gastrocnemius/plantaris muscles) was 2.4 fold, the “Duration of increase in muscle AMPK activity” value (AMPK [4]; [8]) was “at least two” and the “Time to increase in muscle AMPK activity after injection” value (AMPK [4]; [8]) was no more than 15 min. The Tolerance of injections [5] was “no apparent discomfort”, the “GLUT4 in epitrochlearis and gastrocnemius/plantaris” value (GLUT4; AICAR 1 mg/g/d for five days, vs saline, p<0.001 epitrochlearis, p<0.01 gastrocnemius) was “marked increases” and the “Total GLUT4” value (GLUT4; larger rats (350-450 grams), AICAR 0.5 mg/g body weight, n=5/group, control 0.32±0.05, preliminary experiments) was 0.76±0.08 arbitrary units. The “Duration of acute decrease in blood glucose” value [6] was 4 to 6 h and the “Hexokinase activity increase over control values” (hexokinase) was “approximately 2.8 fold”.

In the case of `NC(=O)c1ncn([C@@H]2O[C@H](COP(=O)(O)O)[C@@H](O)[C@H]2O)c1N` [ZMP], the “Potency of AMPK activation in vitro” value (AMPK [7]) is listed as “less potently”.

For `Nc1ncnc2c1ncn2[C@@H]1O[C@H](COP(O)(O)=S)[C@@H](O)[C@H]1O` [adenosine-5′-thiomonophosphate], the “Potency of AMPK activation in vitro” value (AMPK [7]) is listed as “more potently”.

In the case of `Nc1ncnc2c1ncn2[C@@H]1O[C@H](COP(N)(=O)O)[C@@H](O)[C@H]1O` [adenosine 5′-phosphoramidate], the “Potency of AMPK activation in vitro” value (AMPK [7]) is listed as “more potently”.

In the case of `Nc1ncnc2c([C@@H]3O[C@H](COP(=O)(O)O)[C@@H](O)[C@H]3O)[nH]nc12` [Formycin A 5′-monophosphate], the “Potency of AMPK activation in vitro” value (AMPK [7]) is given as “less potently”.
